Common to all, as to test: biochemical
Common to all, as to set-up: radiometric methyltransferase selectivity assay with tritiated SAM, per cent activity
Holding throughout (conditions): read-out: % of control remaining

In one experiment the target is SETDB1 (Homo sapiens, UniProt Q15047). On the procedure:
(§1) The methyltransferase selectivity was assessed at two compound concentrations of 1 and 10 μM by radiometric assays using tritiated-SAM. For methyltransferases: MLL1, MLL3, EZH1 (PRC2), and EZH2 (PRC2), G9a, GLP, SUV39H1, SUV39H2, SUV420H1, SUV420H2, SETD2, SETD8, SETDB1, SETD7, PRMT1, PRMT3, PRMT4, PRMT5/ MEP50 complex, PRMT6, PRMT7, PRMT8, PRMT9, PRDM9, SMYD2, SMYD3, DNMT1, and BCDIN3D the incorporation of a tritium-labeled methyl group into biotinylated substrate was monitored using scintillation proximity assay (SPA). Briefly, a 10 μL reaction containing ^3H-SAM and substrate at concentrations close to the apparent Km values for each enzyme (balanced conditions) was prepared. The reactions were quenched with 10 μL of 7.5 M guanidine hydrochloride; 180 μL of 20 mM Tris buffer (pH 8.0) were added, and the mixture was transferred to a 96-well FlashPlate and incubated for 1 h. The counts per minute (CPM) was measured on a TopCount plate reader. The CPM in the absence of compound or enzyme was defined as 100% activity and background (0%), respectively, for each dataset[74]–[76]. Selectivity of SGC8158 against 342 kinases was evaluated in a kinase panel TR-FRET assay at 1 and 0.1 μM compound in duplicates as described before. Briefly, tagged kinases were incubated with compound and staurosporine-based fluorescent probe where the binding was detected using Tb conjugated anti-tag antibody energy transfer to the probe. Excitation wavelength was 337 nm and fluorescent emission signal was measured for Tb (486 nm) and fluorescent probe (BODIPY, 515 nm). Specific and non-specific binding was determined in the absence and presence of unlabeled staurosporine.

The next experiment concerns the target PRDM9 (Homo sapiens, UniProt Q9NQV7). As for the experimental part: as §1
The target of a further experiment is T1, GLP (Homo sapiens, UniProt Q9H9B1).
T1 construct: gene EHMT1
T1 sequence (Q9H9B1 1-1298): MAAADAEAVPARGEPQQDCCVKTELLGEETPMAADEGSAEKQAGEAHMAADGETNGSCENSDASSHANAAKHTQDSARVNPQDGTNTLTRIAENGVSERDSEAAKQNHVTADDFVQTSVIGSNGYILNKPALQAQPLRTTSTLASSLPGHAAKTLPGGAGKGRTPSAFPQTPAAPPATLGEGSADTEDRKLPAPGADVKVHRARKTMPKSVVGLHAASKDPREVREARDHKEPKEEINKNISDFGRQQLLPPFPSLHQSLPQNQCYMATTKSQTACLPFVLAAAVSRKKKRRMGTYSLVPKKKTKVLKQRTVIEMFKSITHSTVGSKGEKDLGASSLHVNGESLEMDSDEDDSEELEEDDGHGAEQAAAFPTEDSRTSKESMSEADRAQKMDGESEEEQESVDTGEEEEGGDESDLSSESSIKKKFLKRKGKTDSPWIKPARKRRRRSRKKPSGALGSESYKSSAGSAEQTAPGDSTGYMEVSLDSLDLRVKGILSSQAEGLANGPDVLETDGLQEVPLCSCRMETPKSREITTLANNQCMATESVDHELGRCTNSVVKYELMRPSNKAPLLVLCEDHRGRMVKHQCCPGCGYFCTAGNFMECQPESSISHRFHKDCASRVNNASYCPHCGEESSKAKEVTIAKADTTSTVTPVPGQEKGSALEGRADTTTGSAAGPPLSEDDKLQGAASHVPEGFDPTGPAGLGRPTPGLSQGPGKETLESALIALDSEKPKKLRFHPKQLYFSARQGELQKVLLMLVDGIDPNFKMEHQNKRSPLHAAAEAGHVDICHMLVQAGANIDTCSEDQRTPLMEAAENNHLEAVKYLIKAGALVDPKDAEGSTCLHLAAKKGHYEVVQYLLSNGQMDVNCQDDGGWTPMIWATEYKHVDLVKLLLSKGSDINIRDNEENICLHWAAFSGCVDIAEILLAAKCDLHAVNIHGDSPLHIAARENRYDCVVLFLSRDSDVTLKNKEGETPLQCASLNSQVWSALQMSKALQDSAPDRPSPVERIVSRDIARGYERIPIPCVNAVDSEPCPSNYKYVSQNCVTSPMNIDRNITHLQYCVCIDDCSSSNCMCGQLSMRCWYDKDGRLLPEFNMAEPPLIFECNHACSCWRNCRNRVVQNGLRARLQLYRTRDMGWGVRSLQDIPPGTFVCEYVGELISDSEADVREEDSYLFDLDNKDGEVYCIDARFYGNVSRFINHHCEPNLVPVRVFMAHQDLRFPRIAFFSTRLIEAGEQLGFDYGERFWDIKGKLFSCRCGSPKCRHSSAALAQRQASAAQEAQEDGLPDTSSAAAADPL
As for the experimental part:
as §1

The target of the next experiment is T2, SETD7 (Homo sapiens, UniProt Q8WTS6).
T2 sequence (Q8WTS6 1-366): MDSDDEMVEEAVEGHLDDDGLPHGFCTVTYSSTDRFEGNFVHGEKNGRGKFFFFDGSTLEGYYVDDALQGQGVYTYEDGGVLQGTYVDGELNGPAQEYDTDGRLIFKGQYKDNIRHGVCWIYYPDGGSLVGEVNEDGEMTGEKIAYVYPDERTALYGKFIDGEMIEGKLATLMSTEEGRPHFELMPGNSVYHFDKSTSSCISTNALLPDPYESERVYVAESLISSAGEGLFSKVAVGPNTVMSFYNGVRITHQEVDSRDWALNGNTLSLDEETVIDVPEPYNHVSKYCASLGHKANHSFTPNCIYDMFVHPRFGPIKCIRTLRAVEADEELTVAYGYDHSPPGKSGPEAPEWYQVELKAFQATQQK
On the procedure: as §1

PRDM9, sequence (Q9NQV7 whole entry): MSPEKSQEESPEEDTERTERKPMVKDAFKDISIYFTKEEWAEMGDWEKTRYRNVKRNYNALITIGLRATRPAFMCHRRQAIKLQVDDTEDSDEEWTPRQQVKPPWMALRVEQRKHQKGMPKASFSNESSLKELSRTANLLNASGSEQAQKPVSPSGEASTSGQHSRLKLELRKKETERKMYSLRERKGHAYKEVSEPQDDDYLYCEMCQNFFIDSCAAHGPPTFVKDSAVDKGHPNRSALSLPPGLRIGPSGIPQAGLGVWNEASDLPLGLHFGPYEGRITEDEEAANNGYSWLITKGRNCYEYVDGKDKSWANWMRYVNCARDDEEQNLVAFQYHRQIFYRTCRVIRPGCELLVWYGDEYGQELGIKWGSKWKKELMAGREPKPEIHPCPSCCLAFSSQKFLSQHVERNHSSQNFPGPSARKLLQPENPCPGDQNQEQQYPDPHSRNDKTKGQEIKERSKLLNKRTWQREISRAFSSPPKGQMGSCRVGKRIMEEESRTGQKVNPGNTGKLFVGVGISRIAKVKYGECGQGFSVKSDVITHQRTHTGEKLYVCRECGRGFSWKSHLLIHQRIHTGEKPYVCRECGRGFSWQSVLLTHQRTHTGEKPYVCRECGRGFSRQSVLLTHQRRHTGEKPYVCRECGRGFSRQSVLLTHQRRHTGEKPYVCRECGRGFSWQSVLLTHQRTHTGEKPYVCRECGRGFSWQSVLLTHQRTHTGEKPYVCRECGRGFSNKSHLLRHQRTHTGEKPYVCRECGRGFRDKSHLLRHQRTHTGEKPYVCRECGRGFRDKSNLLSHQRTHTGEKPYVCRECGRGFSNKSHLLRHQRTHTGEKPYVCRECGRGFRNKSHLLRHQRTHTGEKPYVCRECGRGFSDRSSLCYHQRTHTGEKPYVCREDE

In the case of `CC1(C)O[C@@H]2[C@H](O1)[C@@H](CSCCCCNCc1cccc(-c3ccc(Cl)cc3)c1)O[C@H]2n1cnc2c(N)ncnc21` [SGC8158N], the remaining activity at 1 µM at SETDB1 is 99%; at PRDM9, 101%; at GLP, 95%; at SETD7, 96%. The remaining activity at 10 µM at SETDB1 came out at 91%; at PRDM9, 98%; at GLP, 90%; at SETD7, 89%.
In the case of `Nc1ncnc2c1ncn2[C@@H]1O[C@H](CSCCCCNCc2cccc(-c3ccc(Cl)cc3)c2)[C@@H](O)[C@H]1O` [SGC8158], the remaining activity at 1 µM at SETDB1 stood at 103%; at PRDM9 it was 106%; on GLP it was 99%; on SETD7, 100%. For the same compound, the remaining activity at 10 µM at SETDB1 was found to be 99%; on PRDM9 it was 96%; at GLP it was 95%; at SETD7, 100%.

Values taken from publication PMC7224190, “Pharmacological inhibition of PRMT7 links arginine monomethylation to the cellular stress response” (Nature Communications, 2020).
